Data taken from US8741934B2, “Inhibitors of ion channels” (Pfizer Limited, priority 2007, dated 2014).

Target: T1, hSCN3A sodium channels (Homo sapiens, UniProt Q9NY46)
T1 construct: expressed in transfected cells
Experiment: hSCN3A electrophysiology, whole-cell patch-clamp or PatchXpress 7000, estimated IC-50 (Table B)
Format: cell-based
Conditions: estimated IC-50; hSCN3A cells, whole-cell patch-clamp or PatchXpress 7000; read-out: SCN3A EIC-50
Procedure: Human Embryonic Kidney (HEK) cells were transfected with an hSCN3A construct using lipofectamine reagent (Invitrogen), using standard techniques. […] Clones were screened for expression using the whole-cell voltage-clamp technique.
HEK cells stably transfected with hSCN3A were maintained in DMEM medium supplemented with 10% heat-inactivated fetal bovine serum and 400 μg/ml G418 sulfate in an incubator at 37° C. with a humidified atmosphere of 10% CO2. […] For electrophysiological studies, cells were removed from the culture flask by brief trypsinization and replated at low density onto glass cover slips. Cells were typically used for electrophysiological experiments within 24 to 72 h after plating.
All recordings were made at room temperature (22-24° C.) using AXOPATCH 200B amplifiers and PCLAMP software (Axon Instruments, Burlingame, Calif.) or PatchXpress 7000 hardware and associated software (Axon Instruments, Burlingame, Calif.).
Current records were acquired at 20 to 50 KHz and filtered at 5 to 10 KHz.
HEK cells stably transfected with hSCN3A were viewed under Hoffman contrast optics and placed in front of an array of flow pipes emitting either control or compound-containing extracellular solutions. All compounds were dissolved in dimethyl sulfoxide to make 10 mM stock solutions, which were then diluted into extracellular solution to attain the final concentrations desired.
The voltage-dependence of inactivation was determined by applying a series of depolarizing prepulses (8 sec long in 10 mV increments) from a negative holding potential. The voltage was then immediately stepped to 0 mV to assess the magnitude of the sodium current. Currents elicited at 0 mV were plotted as a function of prepulse potential to allow estimation of the voltage midpoint of inactivation (V1/2). Cells were then voltage clamped at the empirically determined V1/2.
Compounds were tested for their ability to inhibit hSCN3A sodium channels by activating the channel with a 20 msec voltage step to 0 mV following an 8 second conditioning prepulse to the empirically determined V1/2 (Table B). Compound effect (% inhibition) was determined by difference in current amplitude before and after application of test compounds. […] Inhibition values <20% and >80% were excluded from the calculation.
In some cases electrophysiological assays were conducted with PatchXpress 7000 hardware and associated software (Molecular Devices Corp) (Table B). All assay buffers and solutions were identical to those used in conventional whole-cell voltage clamp experiments described above. hSCN3A cells were grown as above to 50%-80% confluency and harvested by trypsinization. Trypsinized cells were washed and resuspended in extracellular buffer at a concentration of 1×10^6 cells/ml. The onboard liquid handling facility of the PatchXpress was used for dispensing cells and application of test compounds. Determination of the voltage midpoint of inactivation was as described for conventional whole-cell recordings. Cells were then voltage-clamped to the empirically determined V1/2 and current was activated by a 20 msec voltage step to 0 mV.

T1 sequence (Q9NY46 whole entry): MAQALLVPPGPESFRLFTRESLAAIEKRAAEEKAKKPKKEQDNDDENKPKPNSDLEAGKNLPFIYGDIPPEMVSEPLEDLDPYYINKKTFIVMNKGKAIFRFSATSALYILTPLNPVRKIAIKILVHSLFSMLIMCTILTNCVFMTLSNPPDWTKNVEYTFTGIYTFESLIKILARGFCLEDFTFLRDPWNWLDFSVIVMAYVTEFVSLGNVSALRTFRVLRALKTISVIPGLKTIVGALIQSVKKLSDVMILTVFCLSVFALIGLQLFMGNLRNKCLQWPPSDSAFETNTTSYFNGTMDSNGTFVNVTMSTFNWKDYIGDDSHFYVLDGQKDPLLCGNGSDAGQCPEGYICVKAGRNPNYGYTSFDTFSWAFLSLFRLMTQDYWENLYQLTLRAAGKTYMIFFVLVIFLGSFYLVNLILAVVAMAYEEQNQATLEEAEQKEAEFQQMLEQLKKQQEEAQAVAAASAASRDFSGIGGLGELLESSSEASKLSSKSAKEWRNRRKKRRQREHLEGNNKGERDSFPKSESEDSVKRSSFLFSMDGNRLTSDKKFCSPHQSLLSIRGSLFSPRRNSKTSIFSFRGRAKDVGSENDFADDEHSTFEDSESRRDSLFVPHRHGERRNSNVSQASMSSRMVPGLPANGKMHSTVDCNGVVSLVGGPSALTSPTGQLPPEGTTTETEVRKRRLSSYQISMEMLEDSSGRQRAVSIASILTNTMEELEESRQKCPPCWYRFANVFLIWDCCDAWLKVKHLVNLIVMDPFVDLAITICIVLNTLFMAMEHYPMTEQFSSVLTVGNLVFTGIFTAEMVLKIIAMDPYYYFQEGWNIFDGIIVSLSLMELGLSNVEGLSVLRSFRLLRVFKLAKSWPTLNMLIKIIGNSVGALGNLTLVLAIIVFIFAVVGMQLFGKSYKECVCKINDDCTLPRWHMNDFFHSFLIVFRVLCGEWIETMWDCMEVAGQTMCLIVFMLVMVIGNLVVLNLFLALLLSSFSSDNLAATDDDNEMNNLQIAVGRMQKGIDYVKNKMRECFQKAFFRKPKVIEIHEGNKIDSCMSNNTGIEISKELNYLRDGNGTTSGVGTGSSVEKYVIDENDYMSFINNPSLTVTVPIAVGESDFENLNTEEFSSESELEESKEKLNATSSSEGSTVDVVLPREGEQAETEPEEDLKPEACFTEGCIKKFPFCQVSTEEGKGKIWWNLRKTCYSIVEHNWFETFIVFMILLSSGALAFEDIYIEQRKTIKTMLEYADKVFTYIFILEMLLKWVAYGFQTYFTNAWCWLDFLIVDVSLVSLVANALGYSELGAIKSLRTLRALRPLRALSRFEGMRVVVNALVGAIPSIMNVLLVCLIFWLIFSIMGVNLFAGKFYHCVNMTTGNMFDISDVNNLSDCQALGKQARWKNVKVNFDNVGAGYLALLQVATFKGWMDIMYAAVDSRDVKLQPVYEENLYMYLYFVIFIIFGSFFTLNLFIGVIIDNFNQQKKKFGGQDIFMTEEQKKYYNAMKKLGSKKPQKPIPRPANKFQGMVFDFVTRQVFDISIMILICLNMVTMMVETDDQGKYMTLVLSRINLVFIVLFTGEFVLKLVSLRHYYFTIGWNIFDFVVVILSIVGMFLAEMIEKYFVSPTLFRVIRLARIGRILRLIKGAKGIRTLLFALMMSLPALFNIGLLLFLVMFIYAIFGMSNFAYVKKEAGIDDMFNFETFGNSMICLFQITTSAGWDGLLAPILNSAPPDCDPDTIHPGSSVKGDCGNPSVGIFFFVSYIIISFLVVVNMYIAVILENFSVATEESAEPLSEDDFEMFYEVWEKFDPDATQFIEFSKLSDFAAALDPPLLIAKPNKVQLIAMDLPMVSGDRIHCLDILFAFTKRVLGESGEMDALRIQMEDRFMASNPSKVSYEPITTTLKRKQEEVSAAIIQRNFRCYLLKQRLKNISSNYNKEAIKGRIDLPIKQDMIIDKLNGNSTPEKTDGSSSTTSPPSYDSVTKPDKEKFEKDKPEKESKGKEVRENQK

| Compound | IC50 [nM] |
| --- | --- |
| O=C(NCc1ccc(C(F)(F)F)c(Cl)c1)c1ccc(S(=O)(=O)Nc2ncns2)cc1 [Example 324, N-[3-chloro-4-(trifluoromethyl)benzyl]-4-[(1,2,4-thiadiazol-5-ylamino)sulfonyl]benzamide] | 30 |
| O=C(NCc1ccc(OC(F)(F)F)cc1)c1ccc(S(=O)(=O)Nc2nccs2)cc1 [Example 402, 4-[(1,3-Thiazol-2-ylamino)sulfonyl]-N-[4-(trifluoromethoxy)benzyl]benzamide] | 190 |
| COC(=O)c1csc(NS(=O)(=O)c2ccc(C(=O)NCc3ccc(C(F)(F)F)cc3)cc2)n1 [Example 17, Methyl 2-({[4-({[4-(trifluoromethyl)benzyl]amino}carbonyl)phenyl]sulfonyl}amino)-1,3-thiazole-4-carboxylate] | 2940 |
| O=C(NCc1ccc(Cl)cc1Cl)c1ccc(S(=O)(=O)Nc2nccs2)cc1 [Example 413, N-(24-dichlorobenzyl)-4-[(1,3-thiazol-2-ylamino)sulfonyl] benzamide] | 180 |
| O=C(NCc1ccc(OC(F)(F)F)c(F)c1)c1ccc(S(=O)(=O)Nc2ncns2)c(F)c1 [Example 318, 3-Fluoro-N-[3-fluoro-4-(trifluoromethoxy)benzyl]-4-[(1,2,4-thiadiazol-5-ylamino)sulfonyl]benzamide] | 140 |
| O=C(NCc1ccc(Oc2ccccc2)cc1)c1ccc(S(=O)(=O)Nc2nccs2)cc1 [Example 409, N-(4-phenoxybenzyl)-4-[(1,3-thiazol-2-ylamino)sulfonyl] benzamide] | 40 |
| O=C(NCc1cc(Cl)ccc1Cl)c1ccc(S(=O)(=O)Nc2nccs2)cc1 [Example 126, N-(2,5-dichlorobenzyl)-4-[(1,3-thiazol-2-ylamino)sulfonyl]benzamide] | 290 |
| COc1ccccc1CNC(=O)c1ccc(S(=O)(=O)Nc2nccs2)cc1 [Example 174, N-(2-methoxybenzyl)-4-[(1,3-thiazol-2-ylamino)sulfonyl]benzamide] | 3970 |
| O=C(Nc1nccc2cccnc12)c1ccc(S(=O)(=O)Nc2nccs2)cc1 [Example 116, N-1,7-naphthyridin-8-yl-4-[(1,3-thiazol-2-ylamino)sulfonyl]benzamide] | > 100 |
| Cn1nc(Cc2ccc(Cl)cc2)cc1NC(=O)c1ccc(S(=O)(=O)Nc2ncc(Cl)s2)c(F)c1 [Example 379, N-[3-(4-chlorobenzyl)-1-methyl-1H-pyrazol-5-yl]-4-{[(5-chloro-1,3-thiazol-2-yl)-amino]sulfonyl}-3-fluorobenzamide] | 20 |
| O=C(NCCc1ccccc1)c1ccc(S(=O)(=O)Nc2nccs2)cc1 [Example 163, N-(2-phenylethyl)-4-[(1,3-thiazol-2-ylamino)sulfonyl]benzamide] | 5050 |
| COc1ccc(NC(=O)c2ccc(S(=O)(=O)Nc3nccs3)cc2)cn1 [Example 177, N-(6-methoxypyridin-3-yl)-4-[(1,3-thiazol-2-ylamino)sulfonyl]benzamide] | 5670 |
| O=C(NCc1ccc(F)cc1F)c1ccc(S(=O)(=O)Nc2nccs2)cc1 [Example 94, N-(2,4-difluorobenzyl)-4-[(1,3-thiazol-2-ylamino)sulfonyl]benzamide] | > 100 |
| O=C(Nc1ccn(Cc2ccc(Cl)cc2)n1)c1ccc(S(=O)(=O)Nc2nccs2)cc1 [Example 308, N-[1-(4-chlorobenzyl)-1H-pyrazol-3-yl]-4-[(1,3-thiazol-2-ylamino)sulfonyl]benzamide] | 320 |
| COc1ccccc1C1CCCN1C(=O)c1ccc(S(=O)(=O)Nc2nccs2)cc1 (stereo not drawn) [Example 254, 4-{[2-(2-Methoxyphenyl)pyrrolidin-1-yl]carbonyl}-N-1,3-thiazol-2-yl-benzenesulfonamide] | > 1000 |
| Cc1cc(Cl)ccc1CNC(=O)c1ccc(S(=O)(=O)Nc2nccs2)cc1 [Example 414, N-(4-chloro-2-methylbenzyl)-4-[(1,3-thiazol-2-ylamino)sulfonyl] benzamide] | 240 |
| O=C(c1ccc(S(=O)(=O)Nc2nccs2)cc1)N1CCOC(COc2cc(F)cc(F)c2)C1 (stereo not drawn) [Example 262, 4-({2-[(3,5-Difluorophenoxy)methyl]morpholin-4-yl}carbonyl)-N-1,3-thiazol-2-ylbenzenesulfonamide] | 6850 |

| Compound | IC50 [nM] |
| --- | --- |
| O=C(NCc1ccc(C(F)(F)F)cc1)c1ccc(S(=O)(=O)Nc2nc[nH]n2)cc1 [Example 390, 4-[(1H-1,2,4-triazol-3-ylamino)sulfonyl]-N-[4-(trifluoromethyl)benzyl]benzamide] | 9950 |
| Cc1nnc(NS(=O)(=O)c2ccc(C(=O)NCc3ccc(C(F)(F)F)cc3)cc2)s1 [Example 11, 4-{[(5-Methyl-1,3,4-thiadiazol-2-yl)amino]sulfonyl}-N-[4-(trifluoromethyl)benzyl]benzamide] | 2560 |
| Cc1cc(CC(NC(=O)c2ccc(S(=O)(=O)Nc3nccs3)cc2)c2cccc(Cl)c2)on1 (stereo not drawn) [Example 136, N-[1-(3-chlorophenyl)-2-(3-methylisoxazol-5-yl)ethyl]-4-[(1,3-thiazol-2-ylamino)sulfonyl]benzamide] | 4260 |
| O=C(Nc1cnn(Cc2ccc(Cl)cc2)c1)c1ccc(S(=O)(=O)Nc2ncc(Cl)s2)c(F)c1 [Example 381, N-[1-(4-chlorobenzyl)-1H-pyrazol-4-yl]-4-{[(5-chloro-1,3-thiazol-2-yl)amino]sulfonyl}-3-fluorobenzamide] | 120 |
| O=C(NCCNc1ccc(Cl)cc1)c1ccc(S(=O)(=O)Nc2nccs2)cc1 [Example 385, N-{2-[(4-chlorophenyl)amino]ethyl}-4-[(1,3-thiazol-2-ylamino)sulfonyl]benzamide] | 780 |
| N#Cc1cc(S(=O)(=O)Nc2ncc(Cl)s2)ccc1C(=O)NCc1ccc(C(F)(F)F)c(F)c1 [Example 348, 4-{[(5-Chloro-1,3-thiazol-2-yl)amino]sulfonyl}-2-cyano-N-[3-fluoro-4-(trifluoromethyl)benzyl]benzamide] | 1580 |
| O=C(NCc1ccc(C(F)(F)F)cc1)c1ccc(S(=O)(=O)Nc2nccs2)cc1F [Example 325, 2-Fluoro-4-[(1,3-thiazol-2-ylamino)sulfonyl]-N-[4-(trifluoromethyl)benzyl]benzamide] | 460 |
| O=C(NCc1ccc(C(F)(F)F)cc1)c1ccc(S(=O)(=O)Nc2ccn[nH]2)cc1 [Example 24, 4-[(1H-Pyrazol-5-ylamino)sulfonyl]-N-[4-(trifluoromethyl)benzyl]benzamide] | > 10000 |
| O=C(NCCOc1cccc(Cl)c1)c1ccc(S(=O)(=O)Nc2nccs2)cc1 [Example 144, N-[2-(3-chlorophenoxy)ethyl]-4-[(1,3-thiazol-2-ylamino)sulfonyl]benzamide] | 1180 |
| O=C(NCCc1cccc(C(F)(F)F)c1)c1ccc(S(=O)(=O)Nc2nccs2)cc1 [Example 74, 4-[(1,3-Thiazol-2-ylamino)sulfonyl]-N-{2-[3-(trifluoromethyl)phenyl]ethyl}benzamide] | 540 |
| Cc1nn(C)c(C)c1NS(=O)(=O)c1ccc(C(=O)NCc2ccc(C(F)(F)F)cc2)cc1 [Example 27, N-[4-(Trifluoromethyl)benzyl]-4-{[(1,3,5-trimethyl-1H-pyrazol-4-yl)amino]sulfonyl}benzamide] | 23300 |
| O=C(NCc1ccc(OC(F)(F)F)cc1)c1ccc(S(=O)(=O)Nc2nccs2)cc1F [Example 330, 2-Fluoro-4-[(1,3-thiazol-2-ylamino)sulfonyl]-N-[4-(trifluoromethoxy)benzyl]benzamide] | 130 |
| O=C(NCc1cccc(-n2cccn2)c1)c1ccc(S(=O)(=O)Nc2nccs2)cc1 [Example 59, N-[3-(1H-pyrazol-1-yl)benzyl]-4-[(1,3-thiazol-2-ylamino)sulfonyl]benzamide] | 1690 |
| CC(NC(=O)c1ccc(S(=O)(=O)Nc2ncns2)c(F)c1)c1ccc(C(F)(F)F)cc1 (stereo not drawn) [Example 320, 3-Fluoro-4-[(1,2,4-thiadiazol-5-ylamino)sulfonyl]-N-{1-[4-(trifluoromethyl)phenyl]ethyl}benzamide] | 2660 |
| O=C(NCc1cccc(C(F)(F)F)c1)c1ccc(S(=O)(=O)Nc2ncc(Cl)s2)cc1 [Example 28, 4-{[(5-Chloro-1,3-thiazol-2-yl)amino]sulfonyl}-N-[3-(trifluoromethyl)benzyl]benzamide] | 240 |
| O=C(NCc1cccc(C(F)(F)F)c1)c1ccc(S(=O)(=O)Nc2nccs2)cc1F [Example 327, 2-Fluoro-4-[(1,3-thiazol-2-ylamino)sulfonyl]-N-[3-(trifluoromethyl)benzyl]benzamide] | 260 |
